Marks after values point to notes of the source that are not given here.
Experiments:
male white rats [1] = assay: Modified behavioral despair test (water wheel); format: in vivo; conditions: 3 h
Procedure: Nomura et al. (1982) published a modification of the despair swim test in mice involving small water wheel set in a water tank. Mice placed on this apparatus turned the wheel vigorously but when they abandoned attempts to escape from the water, the wheel stopped turning. Antidepressant activity of compounds was assessed by counting the number of rotations of the water wheel (see Table 4).
(§1) The male white rats (250-280 g) were treated intraperitoneally according to procedure described below. The animals were divided into five groups of ten rats and treated as follows. The rats of first group were used as controls. They were injected intraperitoneally with distilled water 24 h, 3 h, 40 minutes before the experiment. Second group was treated with Compound Ia at a dose 100 mg/kg i.p. 24 h, 3 h, 40 minutes before the experiment. Third group was treated with Amitriptyline at a dose 10 mg/kg i.p. using the same regimen as in groups above.
The antidepressant activity was assessed by estimating immobility time as a period in which animal remains immobile during swimming (see Table 4). Statistical data processing was performed using “BioStat” tool for Windows.

male white rats [2] = assay: Behavioral despair test (forced swimming); format: in vivo; conditions: 3 h
Procedure: This behavior reflects a state of despair which can be reduced by several agents which are therapeutically effective in human depression.
as §1, with “I′” for “Ia”
The antidepressant activity was assessed by estimating immobility time as a period in which animal remains immobile during swimming (see Table 2). Statistical data processing was performed using “BioStat” tool for Windows.

C57BL/6J mice [3] = assay: Toxicity test, median lethal dose after intraperitoneal injection; format: in vivo
Procedure: Toxicity to mammals was measured after intraperitoneal injections of compounds of formula I to C57BL/6J mice. Median lethal dose (LD50) was calculated as described previously (see table 1).

C57BL/6J mice [4] = assay: Black and white box test (light-dark test); format: in vivo; conditions: entries to the light zone; i.p.; percent of control (non-treated animals) taken as 100%
Excerpt: The black and white test (also named light-dark test) is based on the conflict of natural tendencies of rodents to avoid lighted and open areas and to explore novel environments. Relative time spent in exploring each compartment indicates the anxiety level of the animal: Avoidance of the brightly lit area is considered reflecting “anxiety-like” behaviors. When treated with anxiolytic drugs, rodents spend more time in this area, an effect purportedly due to a decrease in anxiety.
The C57BL/6J mice were treated intraperitoneally with compound of the invention, then anxiolytic efficacy of compounds of formula I was assessed by estimating the number of entries to the light zone (see Table 1).

C57BL/6J mice [5] = assay: Learned helplessness test (compounds of formula I); format: in vivo; conditions: percent of control (non-treated animals) taken as 100%; for Latency time, % 1/3 LD50: i.p. dose 1/3 of LD50; for Latency time, % 1/13 LD50: i.p. dose 1/13 of LD50
Procedure: The learned helplessness test in mice is the well-known animal model to determine antidepressant efficacy of compounds. Basically when animals learned to be helpless are given antidepressant drugs, they unlearn helplessness and start exerting control over their environment.
The C57BL/6J mice were treated intraperitoneally with compounds of formula I intraperitoneally at dose corresponding to ⅓ or 1/13 of lethal dose, then antidepressant activity of compounds was assessed by estimating latency time as a period in which animal is not trying to escape from stress (see Table 1).

C57BL/6J mice [6] = assay: Learned helplessness test (compound of formula I′); format: in vivo
Procedure: As explained above, the learned helplessness test in mice is the well-known animal model to determine antidepressant efficacy of compounds. Basically when animals learned to be helpless are given antidepressant drugs, they unlearn helplessness and start exerting control over their environment. Antidepressant activity of compounds was assessed by estimating latency time as a period in which animal is not trying to escape from stress (see Table 3). […]

[7] = acute toxicity, known antidepressants for comparison; cited from earlier work
[8] = 10 mg/kg i.p. 24 h, 40 minutes before the experiment (Fluoxetin as powder)
[9] = 90 mg/kg i.p. once daily, 2 days course
[10] = 90 mg/kg i.p. once daily, 6 days course
[11] = 90 mg/kg i.p. once daily, 12 days course
[12] = 100 mg/kg i.p. 24 h, 40 minutes before the experiment
[13] = 100 mg/kg i.p. three times 24 h, 40 min before experiment

Q: For `CN(C)CCC=C1c2ccccc2CCc2ccccc21` [Amitriptyline, reference compound], which Rotation number (male white rats [1]; [8]) is on record?
A: 165.93 ± 35.41

Q: What about the “Immobility time” value (male white rats [2]; [8]) of the same molecule?
A: 145.62 ± 45.39 s

Q: With `CNCCC(Oc1ccc(C(F)(F)F)cc1)c1ccccc1` (centres unmarked) [Fluoxetin] as the molecule, how does the Rotation number (male white rats [1]; [8]) read?
A: 108.34 ± 53.96

Q: And the “Immobility time” value (male white rats [2]; [8])?
A: 337.45 ± 36.69 s

Q: And the “Immobility time” value (male white rats [2]; 20 mg/kg 24 h, 40 minutes before the experiment (Fluoxetin as tablet))?
A: 218.45 ± 38.87 s

Q: Which “LD50” value (C57BL/6J mice [3]) does the source give for `C1CCC2(CC1)NN2CCN1NC12CCCCC2` [Ia, meso-1S,2S,1′R,2′R-1-[2-(1,2-diazaspiro[2.5]oct-1-yl)ethyl]-1,2-diazaspiro[2.5]octane] here?
A: 611 mg/kg

Q: And the “Number of entries, %” value (C57BL/6J mice [4])?
A: 56** %

Q: What about the “Latency time, % 1/3 LD50” value (C57BL/6J mice [5]) of the same molecule?
A: 56** %

Q: What about the “Latency time, % 1/13 LD50” value (C57BL/6J mice [5]) of the same molecule?
A: 72** %

Q: And the “Latency time” value (C57BL/6J mice [6]; [9])?
A: 13.6 ± 1.1 s

Q: What about the Non-escaping animals, % (C57BL/6J mice [6]; [9]) of the same molecule?
A: 18** %

Q: And the “Latency time” value (C57BL/6J mice [6]; [10])?
A: 7.5 ± 0.9 s

Q: And the “Non-escaping animals, %” value (C57BL/6J mice [6]; [10])?
A: 12** %

Q: What about the “Latency time” value (C57BL/6J mice [6]; [11]) of the same molecule?
A: 6.2 ± 0.5 s

Q: What about the “Non-escaping animals, %” value (C57BL/6J mice [6]; [11]) of the same molecule?
A: 1.4** %

Q: And the “effect of single doses in learned helplessness test” value (C57BL/6J mice [6]; single dose)?
A: not effective

Q: Which “LD50” value (C57BL/6J mice [3]) does the source give for `CC1(C)NN1CCCCN1NC1(C)C` [Ic, meso-1S,2S,1′R,2′R-1-[4-(3,3-dimethyldiaziridin-1-yl)butyl]-3,3-dimethyldiaziridine] here?
A: 1000 mg/kg

Q: What about the “Number of entries, %” value (C57BL/6J mice [4]) of the same molecule?
A: 62** %

Q: And the “Latency time, % 1/3 LD50” value (C57BL/6J mice [5])?
A: 188** %

Q: What about the “Latency time, % 1/13 LD50” value (C57BL/6J mice [5]) of the same molecule?
A: 104%

Q: For `CC1(C)NN1CCN1NC12CCCCC2` [Ie, meso-1S,2S,1′R,2′R-1-[2-(3,3-dimethyldiaziridin-1-yl)ethyl]-1,2-diazaspiro[2.5]octane], which “LD50” value (C57BL/6J mice [3]) is on record?
A: 1125 mg/kg

Q: What about the “Number of entries, %” value (C57BL/6J mice [4]) of the same molecule?
A: 75** %

Q: What about the “Latency time, % 1/3 LD50” value (C57BL/6J mice [5]) of the same molecule?
A: 62** %

Q: What about the “Latency time, % 1/13 LD50” value (C57BL/6J mice [5]) of the same molecule?
A: 74** %

Q: Which “LD50” value (C57BL/6J mice [3]) does the source give for `C1CCC2(C1)NN2CCN1NC12CCCC2` [If, meso-1S,2S,1′R,2′R-1-[2-(1,2-diazaspiro[2.4]hept-1-yl)ethyl]-1,2-diazaspiro[2.4]heptane] here?
A: 1150 mg/kg

Q: And the “Number of entries, %” value (C57BL/6J mice [4])?
A: 60** %

Q: And the “Latency time, % 1/3 LD50” value (C57BL/6J mice [5])?
A: 95%

Q: And the “Latency time, % 1/13 LD50” value (C57BL/6J mice [5])?
A: 94%

Q: With `[H][N@]1[N@@](CC[N@@]2[N@]([H])C2(C)C)C1(C)C` [I′, meso-1S,2S,1′R,2′R-1-[2-(3,3-dimethyldiaziridin-1-yl)ethyl]-3,3-dimethyldiaziridine] as the molecule, how does the Rotation number (male white rats [1]; [12]) read?
A: 156.48 ± 26.79

Q: What about the “antidepressant activity (modified behavioral despair test)” value (male white rats [1]; [13]) of the same molecule?
A: significant antidepressant activity

Q: What about the “Immobility time” value (male white rats [2]; [12]) of the same molecule?
A: 291.55 ± 43.94 s

Q: And the “antidepressant activity (behavioral despair test)” value (male white rats [2]; [13])?
A: significant antidepressant activity

Q: And the “time after which antidepressive effect was observed” value (C57BL/6J mice [6]; 90 mg/kg i.p. once daily, earlier than for comparative drugs)?
A: 2 days

Q: For `O=C(CCNNC(=O)c1ccncc1)NCc1ccccc1` [Nyalamidum], which LD50 [7] is on record?
A: 820 mg/kg

Q: With `CN(C)CCCC1(c2ccc(F)cc2)OCc2cc(C#N)ccc21` (centres unmarked) [cypramile] as the molecule, how does the LD50 [7] read?
A: 1.7 mg/kg

Q: Which results are given for `CN(C)CCCN1c2ccccc2CCc2ccccc21` [melipramine]?
A: Latency time (C57BL/6J mice [6]; 7 mg/kg i.p., 2 days course): 13.5 ± 1.8 s; Non-escaping animals, % (C57BL/6J mice [6]; 7 mg/kg i.p., 2 days course): 43%; Latency time (C57BL/6J mice [6]; 7 mg/kg i.p., 6 days course): 11.8 ± 1.5 s; Non-escaping animals, % (C57BL/6J mice [6]; 7 mg/kg i.p., 6 days course): 29%; Latency time (C57BL/6J mice [6]; 7 mg/kg i.p., 12 days course): 9.2 ± 1.1 s; Non-escaping animals, % (C57BL/6J mice [6]; 7 mg/kg i.p., 12 days course): 11* %

Q: Which “Latency time” value (C57BL/6J mice [6]; 10 mg/kg i.p., 2 days course) does the source give for `Cc1ccc2c(c1)c1c3n2CCNC3CCC1` (centres unmarked) [pirazidole] here?
A: 13.6 ± 1.1 s

Q: And the Non-escaping animals, % (C57BL/6J mice [6]; 10 mg/kg i.p., 2 days course)?
A: 39%

Q: What about the “Latency time” value (C57BL/6J mice [6]; 10 mg/kg i.p., 6 days course) of the same molecule?
A: 10.0 ± 1.4 s

Q: And the “Non-escaping animals, %” value (C57BL/6J mice [6]; 10 mg/kg i.p., 6 days course)?
A: 18%

Q: And the “Latency time” value (C57BL/6J mice [6]; 10 mg/kg i.p., 12 days course)?
A: 8.3 ± 0.7 s

Q: What about the “Non-escaping animals, %” value (C57BL/6J mice [6]; 10 mg/kg i.p., 12 days course) of the same molecule?
A: 14* %

— patent US20140088063A1, “AGENTS FOR TREATING NEURODEGENERATIVE DISORDERS” (priority 2010, published 2014)
